# Measurements taken from patent publication US20190351029A1, “MODULATION OF ISCHEMIC CELL BIOENERGETICS” (East Carolina University, priority 2017, published 2019).
# Counter-ions that a name gives are not always drawn.
# Test system: endothelial (HUVEC) cells
# Assay: AAV-mediated expression of PFKFB3 in endothelial cells
# Format: cell-based, human
# Conditions: HUVEC on Matrigel; PFKFB3 inhibited
# From the text: To begin examining the therapeutic potential of PFKFB3 in PAD, an AAV vector was generated to deliver PFKFB3 cloning the PFKFB3 coding sequence into an AAV2 ITR vector with expression driven by the ubiquitous cytomegalovirus promoter (CMV) promoter. AAV-PFKFB3 or control virus (AAV-DJ-GFP) was delivered to muscle (primary mouse myoblast) and endothelial (HUVEC) cells at a multiplicity of infection (MOI) of 10,000.
row,Structure (SMILES),effect on enhanced tube formation of AAV-DJ-PFKFB3 treated endothelial cells
1,"O=C(C=Cc1ccc2ccccc2n1)c1ccncc1 [PFK15, 1-(4-pyridinyl)-3-(2-quinolinyl)-2-propen-1-one]",abolished

# Test system: hypoxic cell growth
# Assay: High-throughput hypoxic cell growth assays
# Format: cell-based
# Conditions: not given
# From the text: In some embodiments, the presently disclosed subject matter relates to the discovery that genetically or pharmacologically enhancing glycolytic metabolism is protective against hypoxia/ischemia. Particularly, in accordance with some embodiments of the presently disclosed subject matter, it has been uncovered that elevated expression of the enzyme 6-phosphofructo-2-kinase/fructose-2,6-bisphosphatase 3 (PFKFB3), a potent allosteric activator of glycolysis, prevents ischemic injury and improves cell survival, while small molecular inhibition of PFKFB3 severely exacerbates ischemic injury. Thus, in some embodiments, the genetic target is PFKFB3. […] The compounds include, for example, metform in, phenformin, biperiden hydrochloride, clemastine, meclizine, berberine chloride, vinpocetine, pimozide, and mefloquine.
# Many Food and Drug Administration (FDA) approved drugs and other chemical compounds have off-target effects on cellular metabolism, including the ability to enhance glycolytic metabolism. Cardiomyoblast (H9c2; obtained from ATCC) cells were treated with a number of compounds (berberine, clofoctol, phenformin, metformin, pentamidine, clemastine, pimoxide, bisacodyl, meclizine, mefloquine, papaverine, flunarizine, biperiden, vinpocetine, and niclosamide) at a final concentration of 1 μM prior to experimental hypoxia for 72 hours. […] Human kidney fibroblast cells were also treated with the compound prior to experimental hypoxia. […] In addition, primary mouse cortical neurons were treated with the compounds prior to experimental ischemia.
row,Structure (SMILES),cell growth/survival in hypoxia
1,OC(CCN1CCCCC1)(c1ccccc1)C1CC2C=CC1C2 (stereo not drawn) [biperiden hydrochloride],improve cell growth/survival in hypoxia
2,COc1ccc2cc3[n+](cc2c1OC)CCc1cc2c(cc1-3)OCO2 [berberine chloride],improve cell growth/survival in hypoxia
3,CN1CCC[C@@H]1CCO[C@](C)(c1ccccc1)c1ccc(Cl)cc1 [clemastine],improve cell growth/survival in hypoxia
4,[H]/N=C(/N)N/C(=N/[H])NCCc1ccccc1 [phenformin],improve cell growth/survival in hypoxia
5,CCOC(=O)C1=C[C@]2(CC)CCCN3CCc4c(n1c1ccccc41)[C@@H]32 [vinpocetine],improve cell growth/survival in hypoxia
6,Cc1cccc(CN2CCN(C(c3ccccc3)c3ccc(Cl)cc3)CC2)c1 (stereo not drawn) [meclizine],improve cell growth/survival in hypoxia
7,"CN(C)C(=N)N=C(N)N [metform in, metformin]",improve cell growth/survival in hypoxia
8,OC(c1cc(C(F)(F)F)nc2c(C(F)(F)F)cccc12)C1CCCCN1 (stereo not drawn) [mefloquine],improve cell growth/survival in hypoxia
